Measured values reported in article PMC7587356, “High-Throughput Screening for Inhibitors of the SARS-CoV-2 Protease Using a FRET-Biosensor” (Molecules, 2020).
Counter-ions that a name gives are not always drawn. Like-named read-outs stand apart in the source and are kept apart here.

Target: SARS-CoV-2 3CLpro (Severe acute respiratory syndrome coronavirus 2, UniProt P0DTD1)
Assay: biochemical
Type: biochemical
Parameters: Replicate_1 / Replicate_2 / mean / mean (LOPAC_screen_w_protease): unit not given here
Conditions: for inhibition at 5 µM: 4 h
[1] = sheet LOPAC_screen_w_protease, LOPAC1280 at 5 µM, mean of two replicates
[2] = sheet LOPAC_screen_w_protease, LOPAC1280 at 5 µM, replicate 1
[3] = sheet LOPAC_screen_w_protease, LOPAC1280 at 5 µM, replicate 2
[4] = LOPAC1280 primary screen with protease, 5 µM compound, replicate 1, read-out: Replicate_1 (LOPAC_screen_w_protease)
[5] = LOPAC1280 primary screen with protease, 5 µM compound, replicate 2, read-out: Replicate_2 (LOPAC_screen_w_protease)
[6] = LOPAC1280 primary screen with protease, 5 µM compound, mean of two replicates
[7] = LOPAC1280 primary screen with protease, 5 µM compound, replicate 1
[8] = LOPAC1280 primary screen with protease, 5 µM compound, replicate 2
[9] = sheet LOPAC_screen_w_protease, LOPAC1280 primary screen at 5 µM, with protease, replicate 1, read-out: Replicate_1
[10] = sheet LOPAC_screen_w_protease, LOPAC1280 primary screen at 5 µM, with protease, replicate 2, read-out: Replicate_2
[11] = sheet LOPAC_screen_w_protease, LOPAC1280 primary screen at 5 µM, with protease, mean of two replicates
[12] = sheet LOPAC_screen_w_protease, LOPAC1280 primary screen at 5 µM, with protease, replicate 1
[13] = sheet LOPAC_screen_w_protease, LOPAC1280 primary screen at 5 µM, with protease, replicate 2
[14] = sheet LOPAC_screen_w_protease, primary screen with protease, 5 µM, mean of two replicates
[15] = sheet LOPAC_screen_w_protease, primary screen with protease, 5 µM, replicate 1
[16] = sheet LOPAC_screen_w_protease, primary screen with protease, 5 µM, replicate 2
[17] = sheet LOPAC_screen_w_protease, LOPAC1280 primary screen with protease, 5 µM compound, mean of the two replicates, read-out: mean
[18] = sheet LOPAC_screen_w_protease, LOPAC1280 primary screen with protease, 5 µM compound, replicate 1, read-out: Replicate_1
[19] = sheet LOPAC_screen_w_protease, LOPAC1280 primary screen with protease, 5 µM compound, replicate 2, read-out: Replicate_2
[20] = sheet LOPAC_screen_w_protease, LOPAC1280 at 5 µM, mean of two replicates, read-out: mean
[21] = sheet LOPAC_screen_w_protease, LOPAC1280 at 5 µM, replicate 1, read-out: Replicate_1
[22] = sheet LOPAC_screen_w_protease, LOPAC1280 at 5 µM, replicate 2, read-out: Replicate_2
[23] = sheet LOPAC_screen_w_protease, LOPAC1280 primary screen at 5 µM, with protease, mean of the two replicates
[24] = sheet LOPAC_screen_w_protease, primary screen with protease, mean of two replicates, read-out: mean
[25] = sheet LOPAC_screen_w_protease, primary screen with protease, replicate 1, read-out: Replicate_1
[26] = sheet LOPAC_screen_w_protease, primary screen with protease, replicate 2, read-out: Replicate_2
[27] = sheet LOPAC_screen_w_protease, primary screen with protease, 5 µM, mean of two replicates, read-out: mean
[28] = sheet LOPAC_screen_w_protease, primary screen with protease, 5 µM, replicate 1, read-out: Replicate_1
[29] = sheet LOPAC_screen_w_protease, primary screen with protease, 5 µM, replicate 2, read-out: Replicate_2

With O=C(O)/C=C\C(=O)O.O=C(O)/C=C\C(=O)O.c1cc(CN2CCCCC2)cc(OCCCNc2nc3ccccc3s2)c1 [SKF 95282 dimaleate] the mean [1] was 0.9471, the Replicate_1 [2] was 0.9833 and the Replicate_2 [3] was 0.911.

For COc1ccc(CCCOC(Cn2ccnc2)c2ccc(OC)cc2)cc1 (stereo not drawn) [SKF 96365], the inhibition at 5 µM [4] was 1.52%, the inhibition at 5 µM [5] was 2.09% and the “mean (LOPAC_screen_w_protease)” value (LOPAC1280 primary screen with protease, 5 µM compound, mean of the two replicates) was 1.802.

With CP(=O)(O)CCCN.Cl [SKF 97541 hydrochloride] the “mean (LOPAC_screen_w_protease)” value [6] was 1.5203, the “Replicate_1 (LOPAC_screen_w_protease)” value [7] was 0.8621 and the “Replicate_2 (LOPAC_screen_w_protease)” value [8] was 2.1785.

Work on CCCC(C(=O)OCCN(CC)CC)(c1ccccc1)c1ccccc1.Cl [SKF-525A hydrochloride] yielded a mean (sheet LOPAC_screen_w_protease, primary screen of LOPAC1280 at 5 µM with protease, mean of the two replicates) of 3.89, a Replicate_1 (sheet LOPAC_screen_w_protease, primary screen of LOPAC1280 at 5 µM with protease, replicate 1) of 3.162 and a Replicate_2 (sheet LOPAC_screen_w_protease, primary screen of LOPAC1280 at 5 µM with protease, replicate 2) of 4.618.

In the case of C=CCN1C[C@H](C)N([C@H](c2ccc(C(=O)N(CC)CC)cc2)c2cccc(OC)c2)C[C@H]1C [SNC80], the Replicate_1 is reported as -0.408, the Replicate_2 is reported as 1.648 and the mean is reported as 0.6198.

With Oc1c2ccccc2c2c3c(cccc13)N=N2 [SP600125] the inhibition at 5 µM (sheet LOPAC_screen_w_protease, LOPAC1280 primary screen at 5 µM, with protease, mean of two replicates, read-out: mean) was -1.9%, the inhibition at 5 µM [9] was 0.641% and the inhibition at 5 µM [10] was -4.45%.

Molecule Nc1ncnc2c1ncn2C1CCCO1 (stereo not drawn) [SQ 22536] has a mean [11] of -1.0181, a Replicate_1 [12] of 0.976 and a Replicate_2 [13] of -3.012.

O=C(O)c1ccccc1Nc1cccc(OCc2ccc3ccccc3n2)c1 [SR 2640] was tested, and the inhibition at 5 µM [4] was 1.95%, the inhibition at 5 µM [5] was 1.04% and the “mean (LOPAC_screen_w_protease)” value [6] was 1.4964.

For Cl.NC1CCN(c2cccc(Cl)n2)CC1 [SR 57227A], the mean [1] was 1.074, the Replicate_1 [2] was 1.181 and the Replicate_2 [3] was 0.9673.

With CCc1ccccc1OC[C@@H](O)CN[C@H]1CCCc2ccccc21.O=C(O)C(=O)O [SR 59230A oxalate] the mean [14] was -0.0002221, the Replicate_1 [15] was 1.088 and the Replicate_2 [16] was -1.089.

For Br.COc1ccc(-c2ccc(=N)n(CCCC(=O)O)n2)cc1 [SR-95531], the “Replicate_1 (LOPAC_screen_w_protease)” value was 2.0939, the “Replicate_2 (LOPAC_screen_w_protease)” value was 0.7216 and the “mean (LOPAC_screen_w_protease)” value was 1.408.

CN(C)c1ccc(/C=C2\C(=O)Nc3ccccc32)cc1 [SU 4312] was tested, and the mean [14] was 0.09243, the Replicate_1 [15] was 0.4934 and the Replicate_2 [16] was -0.3085.

In the case of CN(C)S(=O)(=O)c1ccc2c(c1)/C(=C/c1cc3c([nH]1)CCCC3)C(=O)N2 [SU 6656], the inhibition at 5 µM [17] is reported as 4.85%, the inhibition at 5 µM [18] is reported as 3.58% and the inhibition at 5 µM [19] is reported as 6.11%.

CC(C)(C)NCC(O)c1ccc(O)c(CO)c1 (stereo not drawn) [Salbutamol] gave an inhibition at 5 µM [20] of 1.09%, an inhibition at 5 µM [21] of 1.09% and an inhibition at 5 µM [22] of 1.1%.

In the case of CCCCCCCCCC[Si](C)(C)CCC(=O)NC(Cc1ccc(C)cc1)c1ccccc1 (stereo not drawn) [Sandoz 58-035], the mean [23] is reported as 0.7639, the Replicate_1 [12] is reported as 1.25 and the Replicate_2 [13] is reported as 0.2774.

C[n+]1cc2c3c(ccc2c2ccc4cc5c(cc4c21)OCO5)OCO3 [Sanguinarine chloride] showed an inhibition at 5 µM (read-out: Replicate_1 (LOPAC screen with protease)) of 46.2%, an inhibition at 5 µM (read-out: Replicate_2 (LOPAC screen with protease)) of 43.3% and an inhibition at 5 µM (read-out: mean (LOPAC screen with protease)) of 44.8%.

C[Se]C[C@H](N)C(=O)O.Cl [Se-(methyl)selenocysteine hydrochloride] was tested, and the “mean (LOPAC screen with protease)” value (sheet LOPAC_screen_w_protease, primary screen at 5 µM, mean of two replicates) was 12.3582, the “Replicate_1 (LOPAC screen with protease)” value (sheet LOPAC_screen_w_protease, primary screen at 5 µM, replicate 1) was 13.6627 and the “Replicate_2 (LOPAC screen with protease)” value (sheet LOPAC_screen_w_protease, primary screen at 5 µM, replicate 2) was 11.0537.

For CC(C)[C@@H]1NC(=O)[C@H](CCCCN)NC(=O)[C@@H](Cc2c[nH]c3ccccc23)NC(=O)[C@H](Cc2ccc(O)cc2)NC(=O)[C@H](C)N(C)C(=O)[C@H](Cc2ccccc2)NC1=O [Seglitide], the inhibition at 5 µM [4] was 3.58%, the inhibition at 5 µM [5] was -0.291% and the “mean (LOPAC_screen_w_protease)” value [6] was 1.643.

Cl.NNC(N)=O [Semicarbazide hydrochloride] was tested, and the “mean (LOPAC_screen_w_protease)” value [6] was 1.574, the “Replicate_1 (LOPAC_screen_w_protease)” value [7] was 1.447 and the “Replicate_2 (LOPAC_screen_w_protease)” value [8] was 1.701.

Work on C[C@H](O)C(=O)C1=Nc2c(nc(N)[nH]c2=O)NC1 [Sepiapterin] yielded an inhibition at 5 µM [24] of 2.57%, an inhibition at 5 µM [25] of 2.59% and an inhibition at 5 µM [26] of 2.55%.

NCCc1c[nH]c2ccc(O)cc12 [Serotonin hydrochloride] was tested, and the inhibition at 5 µM [4] was 2.37%, the inhibition at 5 µM [5] was 1.09% and the “mean (LOPAC_screen_w_protease)” value [6] was 1.729.

With CC(C)COC(=O)OCN1C(=O)CN(CCN2CC(=O)N(COC(=O)OCC(C)C)C(=O)C2)CC1=O [Sobuzoxane] the inhibition at 5 µM [24] was 2.23%, the inhibition at 5 µM [25] was 2.79% and the inhibition at 5 µM [26] was 1.66%.

NC(=O)C(=O)O [Sodium Oxamate] showed an inhibition at 5 µM [17] of 4.58%, an inhibition at 5 µM [18] of 4.67% and an inhibition at 5 µM [19] of 4.48%.

In the case of NCCCCNCCCN [Spermidine trihydrochloride], the inhibition at 5 µM [17] is reported as 4.14%, the inhibition at 5 µM [18] is reported as 3.25% and the inhibition at 5 µM [19] is reported as 5.03%.

NCCCNCCCCNCCCN [Spermine tetrahydrochloride] gave an inhibition at 5 µM (read-out: Replicate_1) of 3.94%, an inhibition at 5 µM (read-out: Replicate_2) of 4.24% and an inhibition at 5 µM (read-out: mean) of 4.09%.

In the case of CCCCCCCCCCCCC/C=C/[C@@H](O)[C@@H](N)CO [Sphingosine], the inhibition at 5 µM [27] is reported as -0.887%, the inhibition at 5 µM [28] is reported as -1.81% and the inhibition at 5 µM [29] is reported as 0.0317%.

O=C(CCCN1CCC2(CC1)C(=O)NCN2c1ccccc1)c1ccc(F)cc1 [Spiperone hydrochloride] was tested, and the inhibition at 5 µM [4] was 2.31%, the inhibition at 5 µM [5] was 1.15% and the “mean (LOPAC_screen_w_protease)” value [6] was 1.727.

O=C1NCN(c2ccccc2)C12CCN(CC1COc3ccccc3O1)CC2 (stereo not drawn) [Spiroxatrine] showed an inhibition at 5 µM (sheet LOPAC_screen_w_protease, LOPAC1280 primary screen at 5 µM, with protease, mean of the two replicates, read-out: mean) of 0.522%, an inhibition at 5 µM [9] of 1.86% and an inhibition at 5 µM [10] of -0.819%.

For C[N+](C)(C)CCOC(=O)CCC(=O)OCC[N+](C)(C)C [Succinylcholine chloride], the inhibition at 5 µM [20] was 1.08%, the inhibition at 5 µM [21] was 1.05% and the inhibition at 5 µM [22] was 1.11%.

Molecule Nc1ccc(S(=O)(=O)Nc2ccnn2-c2ccccc2)cc1 [Sulfaphenazole] has an inhibition at 5 µM [27] of 0.0259%, an inhibition at 5 µM [28] of 0.159% and an inhibition at 5 µM [29] of -0.107%.

With CC1=C(CC(=O)O)c2cc(F)ccc2/C1=C\c1ccc(S(C)(=O)=O)cc1 [Sulindac sulfone] the mean [11] was -1.258, the Replicate_1 [12] was 0.6759 and the Replicate_2 [13] was -3.192.

Cc1ccc(C(=O)Nc2ccc(S(=O)(=O)O)c3cc(S(=O)(=O)O)cc(S(=O)(=O)O)c23)cc1NC(=O)c1cccc(NC(=O)Nc2cccc(C(=O)Nc3cc(C(=O)Nc4ccc(S(=O)(=O)O)c5cc(S(=O)(=O)O)cc(S(=O)(=O)O)c45)ccc3C)c2)c1 [Suramin hexasodium] showed an inhibition at 5 µM [20] of 1.22%, an inhibition at 5 µM [21] of 2.66% and an inhibition at 5 µM [22] of -0.222%.

Molecule COC(=O)c1c(-c2cc(OC)c(OC)c(OC)c2)c2ccnc(OCc3ncccn3)c2c(=O)n1Cc1ccnc(C)c1 [T-0156] has a mean [23] of 0.7124, a Replicate_1 [12] of 1.2 and a Replicate_2 [13] of 0.2248.

COC(=O)c1c(-c2cc(OC)c(OC)c(OC)c2)c2ccc(OCc3ccccn3)cc2c(=O)n1-c1ccc(N)cc1.O=S(=O)(O)O [T-1032] gave a mean [23] of 0.5404, a Replicate_1 [12] of 1.02 and a Replicate_2 [13] of 0.06128.

With Clc1cnc(Oc2ccc(Oc3ncc(Cl)cc3Cl)cc2)c(Cl)c1 [TCPOBOP] the mean (sheet LOPAC_screen_w_protease, primary screen with protease, mean of two replicates) was 2.32, the Replicate_1 (sheet LOPAC_screen_w_protease, primary screen with protease, replicate 1) was 5.456 and the Replicate_2 (sheet LOPAC_screen_w_protease, primary screen with protease, replicate 2) was -0.8151.

CCSC(=N)Nc1ccc(C(F)(F)F)cc1.Cl [TFPI hydrochloride] was tested, and the “mean (LOPAC_screen_w_protease)” value [6] was 1.706, the “Replicate_1 (LOPAC_screen_w_protease)” value [7] was 2.498 and the “Replicate_2 (LOPAC_screen_w_protease)” value [8] was 0.9137.

Work on Cl.O=c1[nH]oc2c1CCNC2 [THIP hydrochloride] yielded a mean [14] of -0.005768, a Replicate_1 [15] of -0.552 and a Replicate_2 [16] of 0.5405.
